Assay results as given in patent US20250136997A1, “COMPOSITIONS FOR SEQUESTERING ISOAMYL AMINE AND METHODS OF USE THEREFOR” (University of Louisville Research Foundation, Inc., priority 2023, published 2025).

What was measured:
S100A8 promoter = assay: Luciferase reporter with S100A8 promoter in microglia; assay type: cell-based, mouse
Description: Construction of the S100A8 promoter into the luciferase plasmid vector. To determine the activity of IAA on the promoter of S100A8, a sequence containing 1,037 bp of S100A8 promoter (GENBANK® Accession #: L76381) upstream −1,037 to −1 from transcription start site (TSS) was constructed into the luciferase C1 vector (Addgene, #163523). A DNA fragment was generated by PCR amplification with genomic DNA extracted from mouse liver tissue using DNeasy Blood & Tissue Kits (Qiagen, #69504). PCR was conducted using Q5 High-Fidelity PCR kit (New England Biolabs® Inc.) with the primers 51008A-prom, pLuc163523 and genomic DNA, and luciferase C1 plasmid as the template, respectively. The two PCR products purified using the Gel extraction kit (Qiagen) were seamlessly assembled into the pLuc-S100p using the NEBuilder HiFi DNA Assembly Cloning Kit (New England Biolabs® Inc.). The plasmid pLuc-S100p was transformed into DH5a and selected using kanamycin resistance. The DNA sequence was confirmed by DNA sequencing.
Site-directed mutagenesis within the S100A8 promoter. A mutant of IAA with the potential binding site on the S100A8 promoter was generated with the oligonucleotide primer S1008A-prom-Mut, which was designed to specifically disrupt the putative S100A8 binding site at its promoter (FIG. 3C). Q5® Site-Directed Mutagenesis Kit (New England Biolabs, MA, USA) was used in conjunction with specific primers (Table 3) to introduce S100A8 promoter mutations in the pLuc-S100p construct according to the manufacturer's instructions. After mutant strand synthesis and ligation, resultant plasmids were introduced into E. coli and transformants were selected using kanamycin resistance. The DNA sequence of mutants was confirmed by DNA sequencing.

[1] = Electroencephalography (EEG) recording in mice; assay type: in vivo, mouse
Description: Electroencephalography (EEG) recording in mice. Groups of mice were anesthetized by peritoneal administration of ketamine (90 mg/kg) and xylazine (10 mg/kg) mixture. Mice that were not responsive to nociceptive stimuli were consider anesthetized and were administered the analgesic buprenorphine (0.1 mg/kg). The fur of the skull area was removed, placed on surgical bench and skin area were cleaned with betadine and 70% ethyl alcohol. The midline scalp skin was lifted using forceps and an incision made from the frontal cranial bone to the back of the parietal cranial bones. The skin was push aside and cleaned with betadine using cotton swabs. The skull was cleaned and marked for placement of electrodes. Two craniotomies 0.25-0.5 mm in diameter on the side of each hemisphere were established a 3 mm distance from the midline vertical fissure in the frontal and occipital regions; a hand-held drill (Kopf) with matching drill bits (0.5 mm) was used for the craniotomies. Four electrodes were placed in appropriate skull holes over the frontal cortex (FC) and occipital cortex (OC). A ground/reference electrode was also implanted in the most anterior region of cerebellum. Thus, two independent EEG channels were created for FC and OC on each side of the hemisphere. […]

microglial cells = assay: FACS analysis of apoptotic bodies (ABs) in supernatants of cultured microglial cells; assay type: cell-based, mouse; details: microglial cells isolated from young mice
Description: Flow cytometry. Isolated cells were incubated with blocking solution (0.5% BSA/PBS) for 15 minutes at 4° C. For surface staining, cells were stained with various antibodies at room temperature for 1 hour and then washed with PBS. Washed cells were stained for 40 minutes at 4° C. with the appropriate fluorochrome-conjugated antibodies in PBS with 2% FBS. Data were acquired using a BD FACSCalibur flow cytometer (BD Biosciences, San Jose, CA) and analyzed using FlowJo software (Tree Star Inc., Ashland, OR). The following antibodies purchased from Biolegend were used for flow cytometry: anti-CD11b (101208), anti-CD45 (103112) and FITC Annexin V (640945). For the ABs analysis, extracellular vesicles were collected. To recognize the ABs, as described previously, size gates set based on forward scatter (FSC) were applied in combination with Annexin V staining. From these vesicles total ABs were detected using Annexin V staining events.
Isolation of apoptotic bodies. Apoptotic bodies (ABs) were isolated from culture supernatants as previously described. Briefly, cell culture medium was harvested and cells were removed by pelleting at 335×g for 10 minutes. To remove cell-debris, supernatants were centrifuged at 1,000×g for 10 minutes, followed by another centrifugation at 2,000×g for 30 minutes to pellet ABs. Pelleted ABs were resuspended and washed with PBS.

[2] = Surface plasmon resonance (SPR) of biotin-labeled oligos with IAA; assay type: binding; details: biotin labeled oligo on streptavidin sensor chip
Description: Surface plasmon resonance (SPR). To identify the binding activity of the metabolite IAA and S100A8 promoter sequence, SPR experiments were conducted on an OPENSPR™ (Nicoya, Lifesciences, CA). Experiments were performed on a streptavidin sensor (Nicoya, Lifesciences). SPR was run at a flow rate of 20 μl/min using HBS running buffer (20 mM HEPES, 150 mM NaCl, pH 7.4). First, the streptavidin sensor chip was cleaned with octyl β-D-glucopyranoside (40 mM) and CHAPS (20 mM). 200 μl of biotin-conjugated oligos (1 μg/ml, Table 5) were injected on the sensor chip for 10 minutes until a stable resonance was obtained. After immobilization of bio-oligo, the surface was blocked with BSA (3%) in running buffer. After a stable signal was obtained, IAA (10 nM) was run over the immobilized bio-oligo until a stable resonance was obtained. A negative control test was also performed by injecting IAA onto a blank sensor chip to check for non-specific binding. The sensograms were analyzed using TraceDrawer kinetic analysis software.

| Compound | effect of IAA on the S100A8 transcription (luciferase) (S100A8 promoter; p53 KO microglia with additional p53) | IAA-induced S100A8 activation (luciferase) (S100A8 promoter; p53 deficiency (p53 KO microglia)) | luciferase activity, S100A8 promoter sequence (S100A8 promoter; wild-type promoter, microglia, 12 h after IAA) | EEG rhythms coherence ([1]; IAA mice vs control, phage to aged mice) | distributions of DSA (bilateral symmetry) ([1]; IAA-treated young mice, phage-treated aged mice) | ABs released into the culture supernatants (microglial cells) | interaction with IAA (SPR) [2] |
| --- | --- | --- | --- | --- | --- | --- | --- |
| CC(C)CCN [IAA, isoamylamine] | recovered | attenuated | activated | incoherence | asymmetric bilaterally | increase |  |
| S100p1-G: CTGTGGGCAG CTGGCCAAGC (SEQ ID NO: 8), S100A8 promoter −57 . . . −38 (DNA CTGTGGGCAGCTGGCCAAGC; chemistry not given here) |  |  |  |  |  |  | targeted by IAA |
